The results in this text go back to US20250177392A1, “BROAD SPECTRUM INHIBITORS OF CYTOMEGALOVIRUS” (MICROBIOTIX, INC., priority 2022, published 2025).

Data set [1] in a line: Maximum solubility in water by nephlometry. Format: physicochemical. To be noted: Maximum solubility in water determined by nephlometry.
The test system of data set [2] is CMV strains AD169, TB40/E^Flag-YFP, Towne, and TR. Briefly: CMV infection assay, panel of strains in fibroblasts. Format: cell-based, Human cytomegalovirus. To be noted: Human betaherpesvirus 5, AD169, Fibroblast, read-out: IC50 values ranging. On the procedure:
HCMV strains AD169 (A), TB40/E Flag YFP (B), Towne (C and G), TR (D and F), Merlin (E), and TB40/E (H) infection of NHDF cells pre-treated with DMSO and 0, 1, 5, or 20 μM MBX-4992 or MBXC-4336, respectively, were assessed at 24 hpi based on IE1 expression by anti-IE1 immunostain. TB40/E (I) (MOI 0.25) and AD169^R (J) (MOI 0.25) infection of HTR-svNeo cells treated with DMSO and 0, 1, 5, or 20 μM MBX-4992 were assessed at 24 hpi based on IE1 expression by anti-IE1 immunostain. The % infection was determined using DMSO-treated as 100% infection. The error bars represent values in triplicate. Statistical tests were performed using ordinary one-way ANOVA with multiple comparisons to DMSO treated cells as a control and a Dunnett's post-test *, p<0.05; **, p<0.01; ****, p<0.0001.
Fibroblasts and ARPE-19 cells (10^4) were plated in 96-well plates (Greiner, Monroe, NC). […] At 18 hours post infection (hpi) cells were stained using a rabbit anti-IE1 antibody followed by an anti-rabbit Alexa 647 and measured using a Celigo Cytometer (Parsons et al., Antiviral Res., 193:105124 (2021); Stein et al., Nat. Commun., 10:2699 (2019)). Using the DMSO treated cells as 100% infection, the percent infection of the NAPA compound-treated cells was determined. […]

The subject of data set [3] is HSV-1 E-377. The experiment in a line: Herpes virus panel neutralization, HSV-1. The class given is cell-based, Herpes simplex virus 1. The procedure: (§1) To determine the specificity of MBX-4992, additional neutralization experiments were conducted using a panel of herpes viruses performed in the presence of MBX-4992. […] Collectively, the antiviral activity of MBX-4992 is equivalent to that of GCV indicating specific inhibition of CMV replication.

Data set [4] has as its system HHV-8 BCBL-1. The experiment in a line: Herpes virus panel neutralization, HHV-8. Format: cell-based, Human herpes virus 8. The procedure: as §1
The test system of data set [5] is MCMV Smith. Briefly: Herpes virus panel neutralization, MCMV. Format: cell-based, Murine cytomegalovirus. The procedure:
as §1

Data set [6] has as its system AD169^R. The experiment in a line: Virus pre-incubation / washout study. The conditions noted are these: virus pre-incubated, compound washed out; MBX-4992 10 μM, heparin 50 μg/ml. Format: cell-based, Human cytomegalovirus. On the procedure:
(B) Based on the schematic, AD169^R (MOI 0.2) was pre-incubated with DMSO, MBX-4992, or heparin for one hour before being added to NHDF cells. Virus/compound mix was washed out after 30 minutes as indicated and either unchanged or replaced with media containing DMSO, MBX-4992, or heparin. Virus infection was quantified at 24 hpi GFP fluorescence. Percent infection was normalized to untreated cells.
NHDF cells (10^4) plated overnight in a 96-well plate were incubated at 4° C. for 30 minutes with AD169^R CMV virus pretreated with MBX-4992 (10 μM), Heparin (50 μg/mL) or DMSO for 1 hour at room temperature (in triplicate). For 2/3rd of the samples, media was aspirated and half of the wells received DMSO media, regardless of which drug the virus was exposed to, or MBX-4992 (10 μM), or Heparin (50 μg/mL) overnight. At 18 hpi, the cells were fixed with 4% paraformaldehyde, stained with a rabbit anti-IE1 antibody followed by an anti-rabbit Alexa 647, and analyzed using the Celigo cytometer. The DMSO condition that was not aspirated post binding was set as 100% infection.
To further characterize the mechanism of action, pre-incubation/washout studies were performed using AD169^R and MBX-4992. […] At 18 hpi, cells were immunostained with an anti-IE1 antibody as a readout for infection and quantified using a Celigo cytometer. […]

In data set [7] the test system is NHDF cells. The experiment in a line: CellTiter Glo ATP luciferase assay. The class given is cell-based, human. The conditions noted are these: human, 6 days. The procedure: Fibroblasts were treated with increasing concentrations of MBX-4992 and MBXC-4336 for up to 6 days and cell number was measured periodically using Hoechst stain to quantify cell proliferation (A and B). Cyclohexamide (CHX) and DMSO (−) were used as positive and negative controls for cytotoxicity respectively. Cell cytostaticity (C and D) was assessed using ATP-based CellTiter Glo luciferase assay following extended incubation with increasing concentrations of MBX-4992 and MBXC-4336 for 1 or 6 days. Relative light units (RLU) were measured following cell lysis and normalized to DMSO treated cells for each time point.
The CellTiter Glo Luminescent Assay (Promega Inc, Madison, WI) was performed according to the manufacturer's instruction. NHDF cells (10^4) were plated in a 96-well plate overnight and treated with MBX-4992 or MXC-4336 ([…]) in triplicate for up to 6 days. Cyclohexamide (50 μg/mL) was used as a control. CellTiter Glo substrate was added in a 1:1 ratio with media and CellTiter-Glo reagent followed by the analysis of luciferase activity (relative light units, RLU) using a BioTek Synergy H1 microplate reader. In parallel, an identical plate was labelled with Hoescht reagent (25 μg/mL) to quantify the cell number using a Celigo Cytometer.
Next, the cytostaticity and cytotoxicity of treatment with MBX-4992 and MBXC-4336 was analyzed. […]
For orientation: ATP-based viability assays read luminescence as a measure of living cells.

A value given as a limit tells only on which side of the number the result lay.

The solubility (kinetic) is solubility judged after dilution from a stock solution rather than from solid. By IC50 is commonly meant the point on the concentration scale where inhibition reaches its midpoint. With `Cc1nc(Nc2ccc(NC(=O)c3ccco3)cc2)cc(N2CCCC2)n1` [MBX-4992], the Sol entry in data set [1] is on record as “high solubility”. For the same molecule, in data set [1] (kinetic from dmso stock), the solubility (kinetic) was over 200 µM. Besides, the concentration for half-maximal inhibition (IC50) was 0.5 to 8 µM in data set [2]; over 30 µM in data set [3] (Human alphaherpesvirus 1); 10 µM in data set [4] (Homo sapiens, BCBL1); 4.5 µM in data set [5] (Murid betaherpesvirus 1). In addition, the SI in data set [3] is under 2; in data set [4] it was over 10; in data set [5] (MCMV Smith), over 33. In addition, the “decrease of infection after washing out” value in data set [6] was about 25%.
On to `Cc1nc(Nc2cccc(NC(=O)c3ccco3)c2)cc(N2CCCCC2)n1` [MBXC-4336], for which the “decrease of luciferase activity” value in data set [7] turned out to be 10%.
